Reference: patent US12723024B2 (priority 2021, dated 2026)
In brackets after ≈: the same amount, converted by molar mass. Like-named read-outs stand apart in the source and are kept apart here.

How the values were obtained:
[1] = Solubility in water at 25° C.; settings: thermodynamic from solid
[2] = Solubility in pH buffers and bio-relevant media at 37° C.; format: physicochemical; settings: thermodynamic from solid
[3] = format: physicochemical
From the text: (§1) According to the salt screening results (see Table 4), totally 19 potential salt hits were identified. All the potential salt hits were further investigated by Differential Scanning Calorimetry (DSC), Thermogravimetric analysis (TGA), H-NMR, Ion chromatography (IC), Karl Fischer titration (KF), and Polarized Light Microscopy (PLM) to confirm their identity and evaluate their physicochemical properties as shown in Table 5 below.

[4] = Crystallinity by XRPD; format: physicochemical
Experimental: (§2) Obtained suspensions were taken out and centrifuged. Solids obtained was analysed by XRPD. Salts with high or medium crystallinity were further characterized (see Table 5).
as §1

[5] = Thermogravimetric analysis (TGA) weight loss; format: physicochemical; settings: large scale batch, at the temperature printed in the same cell (100-170° C.)
[6] = Dynamic vapor sorption (DVS) test at 25° C.; format: physicochemical; settings: for 1st Desorp. (%) / 2nd Sorp. (%) / 1st Sorp. (%) / 2nd Desorp. (%): cycle 40-95-0-95-40% RH; for Hygroscopicity: grade in words; for Desorp. (%) / Sorp. (%): cycle 40-0-95-0-40% RH
[7] = Salt screening (slurry crystallization); format: physicochemical; set-up: key to Salt screening result: (+) shows that a crystalline salt was formed; (−) physical mixtures; settings: for Salt screening result: slurry 50° C. then 25° C.; for Polymorph obtained in salt screening: XRPD
Experimental: About 45 mg was added to a suitable solvent and different equivalents of acids were added under stirring at 50° C. for about 2 hours and then at 25° C. for at least 32 hours. Ethanol, acetone, and ACN were used as screening solvents. When no precipitation was obtained or only a few solids were obtained, the solutions were placed at 5° C. for crystallization.
as §2

[8] = Thermogravimetric analysis (TGA) weight loss; format: physicochemical; settings: salt screening sample, at the temperature given (80-200° C.)
From the text: as §1

[9] = format: physicochemical; settings: for chemical purity (%): solid state
[10] = wetted with water or ethanol, ground, dried 10 min; XRPD
Experimental: Wet samples were ground gently with a mortar and pestle. Post granulation samples were dried under ambient condition for 10 min. Potential change of polymorph form and degree of crystallinity were evaluated by XRPD.

[11] = ground manually with mortar and pestle for 5 min; XRPD
Experimental: Potential change of polymorph form and degree of crystallinity were evaluated by XRPD.

[12] = Hygroscopicity (water uptake) of salt hits; format: physicochemical; settings: salt screening sample
From the text: as §1

[13] = aqueous buffer, pH 4.5 (50 mM) acetate buffer, tested up to 2 mg/mL
[14] = aqueous buffer, pH 6.8 (50 mM) phosphate buffer, tested up to 2 mg/mL
[15] = pH 1.2 HCl buffer (0.1N HCl), simulated gastric fluid, pH 1.2 (0.1N HCl), tested up to 2 mg/mL
[16] = simulated gastric fluid, SGF, pH 2.0, tested up to 2 mg/mL
[17] = FaSSIF-V1, pH 6.5, tested up to 2 mg/mL
[18] = FeSSIF-V1, pH 5.0, tested up to 2 mg/mL
[19] = large scale batch, listed as free base (polymorph B)

**Q.** Which results are given for `COc1cc(C(F)(F)F)c(OC)cc1[C@@H]1CCCNC1` [Free base (Polymorph B), (S)-3-(2,5-dimethoxy-4-(trifluoromethyl)phenyl)piperidine]?
**A.** solubility at 2 h [1]: 110 µg/mL (≈ 0.38 mM); solubility at 24 h [1]: 140 µg/mL (≈ 0.484 mM); solubility at 2 h [2, 13]: > 2000 µg/mL; solubility at 24 h [2, 13]: > 2000 µg/mL; solubility at 2 h [2, 14]: 1540 µg/mL (≈ 5.32 mM); solubility at 24 h [2, 14]: 1580 µg/mL (≈ 5.46 mM); solubility at 2 h [2, 15]: > 2000 µg/mL; solubility at 24 h [2, 15]: > 2000 µg/mL; solubility at 2 h [2, 16]: > 2000 µg/mL; solubility at 24 h [2, 16]: > 2000 µg/mL; solubility at 2 h [2, 17]: > 2000 µg/mL; solubility at 24 h [2, 17]: > 2000 µg/mL; solubility at 2 h [2, 18]: > 2000 µg/mL; solubility at 24 h [2, 18]: > 2000 µg/mL; solubility at 2 h ([2]; Water, tested up to 2 mg/mL): 110 µg/mL (≈ 0.38 mM); solubility at 24 h ([2]; Water, tested up to 2 mg/mL): 140 µg/mL (≈ 0.484 mM); Water content (% w/w) ([3]; large scale batch): 8.0% w/w; Water content (% w/w) [3, 19]: about 8 % w/w; Water content (% w/w) ([3]; salt screening sample): 8% w/w; Crystallinity ([4]; large scale batch): High; Crystallinity [4, 19]: high crystallinity; Crystallinity ([4]; salt screening sample): High; Weight loss (%) at Temperature (° C.) [5]: 8.0 at %; Weight loss (%) at Temperature (° C.) ([5]; listed as free base (polymorph B)): about 8%; 1st Desorp. (%) ([6]; 0% RH, 25° C.): 0.02%; 2nd Sorp. (%) ([6]; 0% RH, 25° C.): 0.02%; 1st Desorp. (%) ([6]; 10% RH, 25° C.): 0.20%; 2nd Sorp. (%) ([6]; 10% RH, 25° C.): 0.002%; 1st Desorp. (%) ([6]; 20% RH, 25° C.): 6.07%; 2nd Sorp. (%) ([6]; 20% RH, 25° C.): 0.007%; 1st Desorp. (%) ([6]; 30% RH, 25° C.): 6.29%; 2nd Sorp. (%) ([6]; 30% RH, 25° C.): 0.02%; 1st Desorp. (%) ([6]; 40% RH, 25° C.): 8.54%; 1st Sorp. (%) ([6]; 40% RH, 25° C.): 8.34%; 2nd Desorp. (%) ([6]; 40% RH, 25° C.): 8.23%; 2nd Sorp. (%) ([6]; 40% RH, 25° C.): 0.02%; 1st Desorp. (%) ([6]; 50% RH, 25° C.): 8.90%; 1st Sorp. (%) ([6]; 50% RH, 25° C.): 8.83%; 2nd Desorp. (%) ([6]; 50% RH, 25° C.): 8.76%; 2nd Sorp. (%) ([6]; 50% RH, 25° C.): 0.04%; 1st Desorp. (%) ([6]; 60% RH, 25° C.): 8.90%; 1st Sorp. (%) ([6]; 60% RH, 25° C.): 8.90%; 2nd Desorp. (%) ([6]; 60% RH, 25° C.): 8.79%; 2nd Sorp. (%) ([6]; 60% RH, 25° C.): 0.06%; 1st Desorp. (%) ([6]; 70% RH, 25° C.): 8.97%; 1st Sorp. (%) ([6]; 70% RH, 25° C.): 8.96%; 2nd Desorp. (%) ([6]; 70% RH, 25° C.): 8.87%; 2nd Sorp. (%) ([6]; 70% RH, 25° C.): 0.12%; 1st Desorp. (%) ([6]; 80% RH, 25° C.): 9.03%; 1st Sorp. (%) ([6]; 80% RH, 25° C.): 9.02%; 2nd Desorp. (%) ([6]; 80% RH, 25° C.): 8.95%; 2nd Sorp. (%) ([6]; 80% RH, 25° C.): 3.80%; 1st Desorp. (%) ([6]; 90% RH, 25° C.): 9.13%; 1st Sorp. (%) ([6]; 90% RH, 25° C.): 9.11%; 2nd Desorp. (%) ([6]; 90% RH, 25° C.): 9.06%; 2nd Sorp. (%) ([6]; 90% RH, 25° C.): 9.00%; 1st Desorp. (%) ([6]; 95% RH, 25° C.): 9.21%; 1st Sorp. (%) ([6]; 95% RH, 25° C.): 9.21%; 2nd Desorp. (%) ([6]; 95% RH, 25° C.): 9.14%; 2nd Sorp. (%) ([6]; 95% RH, 25° C.): 9.14%; Hygroscopicity ([6]; DVS at 25° C.): undergoes dehydration when relative humidity is below 40%; Salt screening result ([7]; ACN): Clear solution; Salt screening result ([7]; Acetone): Clear solution; Salt screening result ([7]; EtOH): Clear solution; Weight loss (%) [8]: 8.0%; Initial chemical purity (%) ([9]; before storage): 98.7%; chemical purity (%) ([9]; 25° C./92% RH, open container, 1 week): 98.7%; chemical purity (%) ([9]; 40° C./75% RH, open container, 1 week): 98.8%; chemical purity (%) ([9]; 60° C., tight container, 1 week): 98.5%; Bulk stability ([9]; stressed conditions: 25° C./92% RH, 40° C./75% RH, 60° C., 1 week): chemically stable in these conditions, but physically unstable at 60 °C

**Q.** What does the source list for `COc1cc(C(F)(F)F)c(OC)cc1[C@@H]1CCCNC1.O=C(O)CCC(=O)O` [Succinate salt Polymorph A (anhydrate), succinic acid salt of (S)-3-(2,5-dimethoxy-4-(trifluoromethyl)phenyl)piperidine]?
**A.** Change of polymorph form and degree of crystallinity [10]: No change in polymorph form and crystallinity was observed; Crystallinity ([4]; large scale batch): High; Crystallinity ([4]; large scale batch, listed as succinate salt Polymorph A): high crystallinity; Change of polymorph form and degree of crystallinity [11]: No change in polymorph form and crystallinity was observed; Hygroscopicity (water uptake % w/w) [12]: (~0.7%) % w/w; Weight loss (%) at Temperature (° C.) [5]: 0.2 at %; Weight loss (%) at Temperature (° C.) ([5]; listed as succinate salt Polymorph A): about 0.2%; Desorp. (%) ([6]; 0% RH, 25° C.): 0.00%; Sorp. (%) ([6]; 0% RH, 25° C.): 0.06%; Desorp. (%) ([6]; 10% RH, 25° C.): 0.01%; Sorp. (%) ([6]; 10% RH, 25° C.): 0.06%; Desorp. (%) ([6]; 20% RH, 25° C.): 0.01%; Sorp. (%) ([6]; 20% RH, 25° C.): 0.07%; Water absorbed from 40% RH to 95% RH ([6]; 25° C.): about 0.21%; Desorp. (%) ([6]; 30% RH, 25° C.): 0.02%; Sorp. (%) ([6]; 30% RH, 25° C.): 0.07%; Desorp. (%) ([6]; 40% RH, 25° C.): 0.02%; Sorp. (%) ([6]; 40% RH, 25° C.): 0.07%; Desorp. (%) ([6]; 50% RH, 25° C.): 0.02%; Sorp. (%) ([6]; 50% RH, 25° C.): 0.09%; Desorp. (%) ([6]; 60% RH, 25° C.): 0.03%; Sorp. (%) ([6]; 60% RH, 25° C.): 0.08%; Desorp. (%) ([6]; 70% RH, 25° C.): 0.10%; Sorp. (%) ([6]; 70% RH, 25° C.): 0.09%; Desorp. (%) ([6]; 80% RH, 25° C.): 0.11%; Sorp. (%) ([6]; 80% RH, 25° C.): 0.10%; Desorp. (%) ([6]; 90% RH, 25° C.): 0.16%; Sorp. (%) ([6]; 90% RH, 25° C.): 0.14%; Desorp. (%) ([6]; 95% RH, 25° C.): 0.29%; Sorp. (%) ([6]; 95% RH, 25° C.): 0.29%; XRPD after DVS test ([6]; DVS at 25° C.): No form changes; Hygroscopicity ([6]; DVS at 25° C.): non-hygroscopic; Polymorph obtained in salt screening ([7]; ACN): Polymorph A; Salt screening result ([7]; ACN): +; Polymorph obtained in salt screening ([7]; Acetone): Polymorph A; Salt screening result ([7]; Acetone): +; Polymorph obtained in salt screening ([7]; EtOH): Polymorph A; Salt screening result ([7]; EtOH): +; Weight loss (%) [8]: 2.1%
